In PMC6584481, “Quercetin protects rats from catheter‐related Staphylococcus aureus infections by inhibiting coagulase activity” (Journal of Cellular and Molecular Medicine, 2019):

Columns and labels:
Format in all cases: binding
Coagulase (Coa) [1] = molecular target: T1, Coagulase (Coa) (Staphylococcus aureus, UniProt P17855, L223A); assay: fluorescence spectroscopy quenching (KA); conditions: read-out: L221A (converted)
T1 sequence (P17855 27-715 L223A): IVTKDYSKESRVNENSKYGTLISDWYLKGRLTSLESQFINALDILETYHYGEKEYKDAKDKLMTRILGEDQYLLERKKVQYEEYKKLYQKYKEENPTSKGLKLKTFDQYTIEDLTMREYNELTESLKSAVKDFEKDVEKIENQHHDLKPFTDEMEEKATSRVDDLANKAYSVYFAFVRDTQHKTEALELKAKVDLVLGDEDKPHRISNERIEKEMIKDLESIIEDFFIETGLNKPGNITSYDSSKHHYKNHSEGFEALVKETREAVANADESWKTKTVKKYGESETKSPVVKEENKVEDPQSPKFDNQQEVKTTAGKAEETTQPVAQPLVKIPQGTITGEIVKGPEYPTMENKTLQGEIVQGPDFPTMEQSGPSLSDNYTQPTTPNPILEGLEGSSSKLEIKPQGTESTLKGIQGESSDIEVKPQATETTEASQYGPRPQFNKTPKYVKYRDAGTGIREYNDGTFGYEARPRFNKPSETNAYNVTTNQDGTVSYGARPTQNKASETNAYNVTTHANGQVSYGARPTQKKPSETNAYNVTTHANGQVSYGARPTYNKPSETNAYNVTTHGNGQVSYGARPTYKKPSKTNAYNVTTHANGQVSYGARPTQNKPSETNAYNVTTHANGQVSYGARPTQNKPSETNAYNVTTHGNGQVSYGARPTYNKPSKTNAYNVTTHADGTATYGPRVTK

Coagulase (Coa) [2] = molecular target: Coagulase (Coa) (Staphylococcus aureus, UniProt P17855); assay: fluorescence spectroscopy quenching (KA); thermal shift of […]°C; plasma/blood coagulation inhibition with recombinant Coa; conditions: read-out: WT-Coa (converted)
Coagulase (Coa) [3] = molecular target: T2, Coagulase (Coa) (Staphylococcus aureus, UniProt P17855, H230A); assay: fluorescence spectroscopy quenching (KA); conditions: read-out: H228A (converted)
T2 sequence (P17855 27-715 H230A): T1 sequence (P17855 27-715 L223A)

O=c1c(O)c(-c2ccc(O)c(O)c2)oc2cc(O)cc(O)c12 [quercetin, 3,3′,4′,5,7‐pentahydroxyflavone]
Kd (Coagulase (Coa) [1]): 32.3 µM | Kd (Coagulase (Coa) [2]): 21.7 µM | Kd (Coagulase (Coa) [3]): 25 µM
